In brackets after ≈: the same amount, converted by molar mass.
Each compound was assayed on IgG fraction of the antiserum raised to immunogen A (hapten A-BSA). Settings: not given.
Type: binding, sheep
Description: Aqueous solutions of the immunogens prepared in Examples 7 and 8 were formulated with Freund's Complete Adjuvant (FCA) to form emulsions consisting of 4 mg/ml immunogen A and 2 mg/ml immunogen B in 50% (v/v) FCA. Three sheep were immunized with each emulsion (1° immunizations), 0.25 ml being subcutaneously injected at each of four sites in the flank of each animal. The next immunizations (first boosts) contained 2 mg/ml immunogen A and 1 mg/ml immunogen B. Subsequent immunizations (boosts […]) contained 1 mg/ml of each immunogen. All boosts were emulsified in 50% (v/v) Freund's Incomplete Adjuvant (FIA) and administered to the appropriate sheep in the same manner as the 1° immunizations, at monthly intervals for 1 year. Blood sampling took place 7 to 14 days after each boost. Each sample was processed to produce antiserum which was further purified by caprylic acid and ammonium sulfate precipitation to yield an immunoglobulin G (IgG) fraction. The IgG fraction was evaluated by competitive ELISA microtiter plate assay, as described in Example 12 below.
(a) The wells of an enhanced binding 96-well polystyrene microtiter plate were coated with the IgG fraction of the antiserum raised to immunogen A (hapten A-BSA) (Example 7), diluted in 10 mM Tris, pH8.5 (125 μl/well). The appropriate antibody coating dilution was determined using standard ELISA chequerboard techniques. The plate was incubated for 2 hours at 37° C., washed 4 times with Tris-buffered saline containing Tween 20 (TBST) and tapped dry. […] 75 μl of conjugate A (hapten A-HRP) (Example 10), diluted in Tris buffer containing EDTA, D-mannitol, sucrose, thimerosal and BSA, was added to each of the wells. The appropriate dilution of conjugate was also determined using standard ELISA chequerboard techniques. The plate was incubated at 37° C. for 2 hours. The excess unbound conjugate was removed by washing 6 times over a 10 minute period with TBST. 125 μl of tetramethylbenzedine (TMB) substrate solution was added to each well of the plate that was then incubated for 15 to 20 minutes in the dark at room temperature. The reaction was terminated by addition of 125 μl 0.2M H2SO4 to each well. The absorbance was then measured at 450 nm using a microtiter plate reader.
In the case of COc1ccc2c3c1O[C@H]1[C@@H](O)C=C[C@H]4[C@@H](C2)N(C)CC[C@@]341 [Codeine], the “% CR” value is reported as 2.2%. COc1ccc2c3c1O[C@H]1[C@@H](O)CC[C@H]4[C@@H](C2)N(C)CC[C@@]341 [Dihydrocodone] was tested, and the “% CR” value was less than 1.7%. With COc1ccc2c3c1O[C@H]1C(=O)CC[C@H]4[C@@H](C2)N(C)CC[C@]314 [Hydrocodone] the “% CR” value was less than 1.7%. In the case of CN1CC[C@]23c4c5ccc(O[C@@H]6O[C@H](C(=O)O)[C@@H](O)[C@H](O)[C@H]6O)c4O[C@H]2[C@@H](O)C=C[C@H]3[C@H]1C5 [Morphine-3-glucuronide], the “% CR” value is reported as less than 1.7%.

Same assay, conditions: concentration of test opiate that causes 50% displacement of signal; Table 3, Example 13 (a)
COc1ccc2c3c1O[C@H]1[C@@H](O)C=C[C@H]4[C@@H](C2)N(C)CC[C@@]341 [Codeine] was tested, and the “IC50, OP” value was 386.7 ng/mL (≈ 1.29 µM). In the case of COc1ccc2c3c1O[C@H]1[C@@H](O)CC[C@H]4[C@@H](C2)N(C)CC[C@@]341 [Dihydrocodone], the “IC50, OP” value is reported as greater than 500 ng/mL. COc1ccc2c3c1O[C@H]1C(=O)CC[C@H]4[C@@H](C2)N(C)CC[C@]314 [Hydrocodone] was tested, and the “IC50, OP” value was greater than 500 ng/mL. With CN1CC[C@]23c4c5ccc(O[C@@H]6O[C@H](C(=O)O)[C@@H](O)[C@H](O)[C@H]6O)c4O[C@H]2[C@@H](O)C=C[C@H]3[C@H]1C5 [Morphine-3-glucuronide] the “IC50, OP” value was greater than 500 ng/mL.

Each compound was assayed on IgG fraction of the antiserum raised to immunogen B (hapten B-BSA). Settings: not given.
Type: binding, sheep
In the case of COc1ccc2c3c1O[C@H]1[C@@H](O)C=C[C@H]4[C@@H](C2)N(C)CC[C@@]341 [Codeine], the “% CR” value is reported as less than 2.7%. COc1ccc2c3c1O[C@H]1[C@@H](O)CC[C@H]4[C@@H](C2)N(C)CC[C@@]341 [Dihydrocodone] was tested, and the “% CR” value was less than 2.7%. For COc1ccc2c3c1O[C@H]1C(=O)CC[C@H]4[C@@H](C2)N(C)CC[C@]314 [Hydrocodone], the “% CR” value was 75.6%. For CN1CC[C@]23c4c5ccc(O[C@@H]6O[C@H](C(=O)O)[C@@H](O)[C@H](O)[C@H]6O)c4O[C@H]2[C@@H](O)C=C[C@H]3[C@H]1C5 [Morphine-3-glucuronide], the “% CR” value was less than 2.7%.

Same assay, conditions: concentration of test opiate that causes 50% displacement of signal; Table 3, Example 13 (b)
COc1ccc2c3c1O[C@H]1[C@@H](O)C=C[C@H]4[C@@H](C2)N(C)CC[C@@]341 [Codeine] was tested, and the “IC50, OP” value was greater than 2000 ng/mL. In the case of COc1ccc2c3c1O[C@H]1[C@@H](O)CC[C@H]4[C@@H](C2)N(C)CC[C@@]341 [Dihydrocodone], the “IC50, OP” value is reported as greater than 2000 ng/mL. With COc1ccc2c3c1O[C@H]1C(=O)CC[C@H]4[C@@H](C2)N(C)CC[C@]314 [Hydrocodone] the “IC50, OP” value was 72.4 ng/mL (≈ 0.242 µM). In the case of CN1CC[C@]23c4c5ccc(O[C@@H]6O[C@H](C(=O)O)[C@@H](O)[C@H](O)[C@H]6O)c4O[C@H]2[C@@H](O)C=C[C@H]3[C@H]1C5 [Morphine-3-glucuronide], the “IC50, OP” value is reported as greater than 2000 ng/mL.
